Results taken from BindingDB's records for PubMed 2156866 (Nagoya University School of Medicine, 1990).

Columns and labels:
Experiment in all cases: Enzyme Assay
Details in all cases: 30 °C
[1] = molecular target: T1, cGMP-dependent protein kinase 1 (Homo sapiens, UniProt Q13976)
T1 sequence (Q13976 whole entry): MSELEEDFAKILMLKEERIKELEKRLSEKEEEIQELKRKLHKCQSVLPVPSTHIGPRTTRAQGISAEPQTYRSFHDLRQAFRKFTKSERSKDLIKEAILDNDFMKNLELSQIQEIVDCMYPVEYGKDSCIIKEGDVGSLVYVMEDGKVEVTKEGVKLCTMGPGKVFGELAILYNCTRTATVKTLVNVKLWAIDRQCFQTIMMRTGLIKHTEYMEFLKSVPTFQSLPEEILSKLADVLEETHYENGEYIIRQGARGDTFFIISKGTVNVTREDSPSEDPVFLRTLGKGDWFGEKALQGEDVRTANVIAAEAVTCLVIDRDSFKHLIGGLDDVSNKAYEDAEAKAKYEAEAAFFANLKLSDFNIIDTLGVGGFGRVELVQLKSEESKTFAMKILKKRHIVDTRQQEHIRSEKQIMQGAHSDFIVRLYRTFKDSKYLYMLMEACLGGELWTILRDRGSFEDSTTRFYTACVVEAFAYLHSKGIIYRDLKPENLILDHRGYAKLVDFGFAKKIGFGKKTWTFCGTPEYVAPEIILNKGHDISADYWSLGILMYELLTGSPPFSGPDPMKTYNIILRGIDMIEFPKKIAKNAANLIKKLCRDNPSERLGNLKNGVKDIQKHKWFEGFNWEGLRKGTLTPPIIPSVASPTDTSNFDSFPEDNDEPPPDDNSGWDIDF
Description: (§1) Protein kinase C, cAMP dependent protein kinase, cGMP dependent protein kinase and myosin light chain kinase activity were measure under conditions described by Hidaka. Casein kinases I and II activities were meas8ured as described by Chijiwa. Ca/ calmodulin kinase II activity was measure d by the method described by McGuinness.

[2] = molecular target: Calcium/calmodulin-dependent protein kinase type II subunit beta (Homo sapiens, UniProt Q13554)
Description: as §1

[3] = molecular target: Casein kinase II subunit alpha (Homo sapiens, UniProt P68400)
Description: as §1

[4] = molecular target: Casein kinase I isoform alpha (Homo sapiens, UniProt P48729)
Description: as §1

[5] = molecular target: Protein kinase C alpha type (Homo sapiens, UniProt P17252)
Description: as §1

[6] = molecular target: cAMP-dependent protein kinase catalytic subunit alpha (Homo sapiens, UniProt P17612)
Description: as §1

Chain of Calcium/calmodulin-dependent protein kinase type II subunit beta (Q13554 whole entry): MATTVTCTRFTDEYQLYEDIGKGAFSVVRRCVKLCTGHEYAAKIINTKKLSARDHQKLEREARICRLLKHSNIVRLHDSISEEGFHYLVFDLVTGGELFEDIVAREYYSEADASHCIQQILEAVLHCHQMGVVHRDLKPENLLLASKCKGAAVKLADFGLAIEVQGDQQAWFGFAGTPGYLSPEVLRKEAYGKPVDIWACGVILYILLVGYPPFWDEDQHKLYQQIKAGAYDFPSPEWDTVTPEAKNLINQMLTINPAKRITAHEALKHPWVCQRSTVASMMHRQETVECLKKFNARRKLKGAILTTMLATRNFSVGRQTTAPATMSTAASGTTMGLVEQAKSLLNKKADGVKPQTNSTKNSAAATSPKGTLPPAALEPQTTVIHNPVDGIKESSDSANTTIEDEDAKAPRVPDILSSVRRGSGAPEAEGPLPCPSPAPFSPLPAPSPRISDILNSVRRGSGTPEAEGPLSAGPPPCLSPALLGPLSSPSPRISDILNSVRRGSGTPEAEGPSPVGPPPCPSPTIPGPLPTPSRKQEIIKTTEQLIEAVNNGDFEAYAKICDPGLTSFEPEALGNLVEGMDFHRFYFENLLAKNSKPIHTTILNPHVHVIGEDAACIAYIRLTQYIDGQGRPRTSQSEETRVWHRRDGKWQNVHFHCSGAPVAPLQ
Chain of Casein kinase I isoform alpha (P48729 whole entry, canonical isoform): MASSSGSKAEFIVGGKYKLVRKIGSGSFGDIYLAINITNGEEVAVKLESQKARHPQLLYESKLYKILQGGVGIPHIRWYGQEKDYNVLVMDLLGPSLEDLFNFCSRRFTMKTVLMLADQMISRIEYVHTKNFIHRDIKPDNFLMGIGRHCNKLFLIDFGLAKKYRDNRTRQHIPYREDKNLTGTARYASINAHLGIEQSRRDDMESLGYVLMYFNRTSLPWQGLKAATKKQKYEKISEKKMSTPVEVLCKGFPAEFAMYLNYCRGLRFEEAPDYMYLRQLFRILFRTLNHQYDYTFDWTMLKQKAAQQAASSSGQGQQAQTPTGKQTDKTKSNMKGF
Chain of Casein kinase II subunit alpha (P68400 whole entry): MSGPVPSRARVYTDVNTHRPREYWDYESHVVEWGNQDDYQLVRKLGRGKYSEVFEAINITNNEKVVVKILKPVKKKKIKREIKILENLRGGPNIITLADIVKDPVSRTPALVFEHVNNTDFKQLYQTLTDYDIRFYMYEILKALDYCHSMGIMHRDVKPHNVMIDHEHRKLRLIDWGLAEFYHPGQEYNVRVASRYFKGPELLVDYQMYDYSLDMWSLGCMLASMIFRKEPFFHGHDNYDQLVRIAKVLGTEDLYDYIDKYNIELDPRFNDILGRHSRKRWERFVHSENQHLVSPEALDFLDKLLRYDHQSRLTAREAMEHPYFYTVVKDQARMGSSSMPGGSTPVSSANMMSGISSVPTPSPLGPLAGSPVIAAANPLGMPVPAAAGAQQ

Row | SMILES | Ki [1] [µM] | Ki [2] [µM] | Ki [3] [µM] | Ki [4] [µM] | Ki [5] [µM] | Ki [6] [µM]
1 | O=S(=O)(NCCNC/C=C/c1ccc(Br)cc1)c1cccc2cnccc12 | 0.48 | 29.7 |  |  |  | 
2 | O=S(=O)(NCCNC/C=C/c1ccccc1)c1cccc2cnccc12 [H-88] | 0.76 | 71.3 | 104 | 60.7 | 75.7 | 0.36
